Measurements as given in PMC4669411 (FEBS Open Bio, 2015).

What was measured:
[1] = molecular target: T1, PputG6PDH-1 (Pseudomonas putida, UniProt Q88P31); test: progress curves at […] nm, product inhibition, global fit; type: biochemical
T1 sequence (Q88P31 1-489): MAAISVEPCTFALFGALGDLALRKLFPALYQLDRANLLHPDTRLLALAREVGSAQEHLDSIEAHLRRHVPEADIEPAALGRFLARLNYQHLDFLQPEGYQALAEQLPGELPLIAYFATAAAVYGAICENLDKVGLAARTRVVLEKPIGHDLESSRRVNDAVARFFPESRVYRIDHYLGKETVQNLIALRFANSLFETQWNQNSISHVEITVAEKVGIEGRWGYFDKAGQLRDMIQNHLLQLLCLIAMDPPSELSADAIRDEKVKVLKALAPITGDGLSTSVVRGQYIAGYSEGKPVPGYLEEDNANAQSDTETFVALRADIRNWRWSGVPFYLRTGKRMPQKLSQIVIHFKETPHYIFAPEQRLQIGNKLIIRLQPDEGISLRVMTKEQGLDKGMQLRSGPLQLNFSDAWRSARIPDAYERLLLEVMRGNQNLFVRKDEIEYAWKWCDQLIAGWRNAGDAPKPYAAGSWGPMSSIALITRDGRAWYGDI

[2] = molecular target: T1, PputG6PDH-1; test: initial rates, NAD; type: biochemical

Compound	Ki [1] [µM]	Ki [2] [µM]
NC(=O)C1=CN([C@@H]2O[C@H](COP(=O)(O)OP(=O)(O)OC[C@H]3O[C@@H](n4cnc5c(N)ncnc54)[C@H](O)[C@@H]3O)[C@@H](O)[C@H]2O)C=CC1 [NADH]	480 ± 7	–
NC(=O)C1=CN([C@@H]2O[C@H](COP(=O)(O)OP(=O)(O)OC[C@H]3O[C@@H](n4cnc5c(N)ncnc54)[C@H](OP(=O)(O)O)[C@@H]3O)[C@@H](O)[C@H]2O)C=CC1 [NADPH]	–	18 ± 3
